Measurements taken from US20240294531A1, “COVALENT HETEROCYCLES AND USES THEREOF” (Kumquat Biosciences Inc., priority 2022, published 2024).

Assays:
Assay type in all cases: binding
[1] = molecular target: T1, BTK wildtype protein (Homo sapiens (Human), UniProt Q06187); test: Kinact/KI determination for BTK protein inhibitors (Kobs)
Method: Test compounds were prepared as 10 mM stock solutions in DMSO (Fisher cat #BP231-100). Human recombinant BTK wildtype protein 393-659 or BTK C481S protein 393-659 was produced in house or purchased from Saromics Biostructures AB (Lund, Sweden). BTK protein was diluted to 1 μM in buffer (20 mM Hepes, pH 7.5, 150 mM NaCl, 1 mM MgCl2, 1 mM DTT). For testing BTK modification, compounds were diluted to 50× final test concentration in DMSO in 96-well storage plates. 1 μL of the diluted 50× compounds were added to appropriate wells in the PCR plate (Fisher cat #AB-0800). Increasing concentrations of compounds were added to separate wells, resulting in final assay compound concentrations of 3 μM, 10 μM, 30 μM and 100 μM. 49 μL of the stock protein solution was added to each well of the 96-well PCR plate. Reactions were mixed carefully. The plate was sealed well with aluminum plate seal and stored in a drawer at room temperature. After different incubation times, the reactions were quenched by adding 5 μL of 2% formic acid (Fisher cat #A117-50) in MilliQ H2O to each well followed by mixing with a pipette. The plate was then resealed with aluminum seal and stored until mass spectrometry analysis.
The extent of covalent modification of BTK proteins was determined by liquid chromatography electrospray mass spectrometry analysis of the intact proteins using a Thermo Q-Exactive Plus mass spectrometer. 20 μL of sample was injected onto a bioZen 3.6 μm Intact C4 column (Phenomenex cat #00B-4767-AN) placed in a column oven set to 40° C. and separated using a LC gradient from 20% to 60% solvent B. Solvent A was 0.1% formic acid and solvent B was 0.1% formic acid in acetonitrile. HESI source settings were set to 40, 5 and 1 for the sheath, auxiliary and sweep gas flow, respectively. The spray voltage was 4 kV, and the capillary temperature was 320° C. S-lens RF level was 50 and auxiliary gas heater temperature was set to 200° C. The mass spectrometry was acquired using a scan range from 650 to 1750 m/z using positive polarity at a mass resolution of 70,000, AGC target of 1e6 ions and maximum injection time of 250 ms. The recorded protein mass spectrum was deconvoluted from the raw data file using Protein Deconvolution v4.0 (Thermo). The protein mass, adduct masses and their corresponding peak intensities were exported to Excel (Microsoft). The peak intensities for the unmodified and modified protein were used to calculate the percent covalent modification of the BTK protein based on the following equation: % BTK protein modification=((BTK−compound)/(BTK)+(BTK−Compound))*100.
The Kinact/KI is a rate constant describing the efficiency of covalent bond formation resulting from the potency (KI) of the first reversible binding event and the maximum potential rate (Kinact) of inactivation. The percent […] protein modification was plotted as a function of time using Prism version 9.4.1 (GraphPad), and the observed rate of modification (Kobs), a first-order rate constant with units of inverse time, was estimated using nonlinear regression at each compound concentration. […] If Kobs is increasing with compound concentration, KI is higher than 3 μM. Kinact/KI can be estimated by plotting Kobs values against each compound concentration used in separate reactions. The Kobs values are fitted to determine Kinact and KI using the following equation, Kobs=(Kinact×[compound conc])/(KI+[compound conc]).
Target sequence in this assay (Q06187 393-659): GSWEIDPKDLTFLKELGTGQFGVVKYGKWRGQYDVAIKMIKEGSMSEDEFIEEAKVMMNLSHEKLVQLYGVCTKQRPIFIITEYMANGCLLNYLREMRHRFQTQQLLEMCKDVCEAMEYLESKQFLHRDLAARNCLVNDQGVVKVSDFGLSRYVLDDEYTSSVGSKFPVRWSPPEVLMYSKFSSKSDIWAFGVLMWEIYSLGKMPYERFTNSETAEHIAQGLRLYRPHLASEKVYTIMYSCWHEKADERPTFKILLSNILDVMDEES

[2] = molecular target: T1, BTK wildtype protein; test: BTK wildtype HTRF displacement assay; settings: 1-hour incubation; read-out: BTK (wt) IC50
Summary of the method: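 Full-length N-terminal GST-tagged BTK incubated 1 h at room temperature with compound (6 doses, four-fold dilutions from 5 μM top) plus kinase tracer 239 and anti-GST-Tb antibody. Tracer displacement read as TR-FRET 665/620 ratio, background-subtracted using no-protein control. IC50 from four-parameter fit constrained 0–100% inhibition.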
Target sequence in this assay (Q06187 2-659): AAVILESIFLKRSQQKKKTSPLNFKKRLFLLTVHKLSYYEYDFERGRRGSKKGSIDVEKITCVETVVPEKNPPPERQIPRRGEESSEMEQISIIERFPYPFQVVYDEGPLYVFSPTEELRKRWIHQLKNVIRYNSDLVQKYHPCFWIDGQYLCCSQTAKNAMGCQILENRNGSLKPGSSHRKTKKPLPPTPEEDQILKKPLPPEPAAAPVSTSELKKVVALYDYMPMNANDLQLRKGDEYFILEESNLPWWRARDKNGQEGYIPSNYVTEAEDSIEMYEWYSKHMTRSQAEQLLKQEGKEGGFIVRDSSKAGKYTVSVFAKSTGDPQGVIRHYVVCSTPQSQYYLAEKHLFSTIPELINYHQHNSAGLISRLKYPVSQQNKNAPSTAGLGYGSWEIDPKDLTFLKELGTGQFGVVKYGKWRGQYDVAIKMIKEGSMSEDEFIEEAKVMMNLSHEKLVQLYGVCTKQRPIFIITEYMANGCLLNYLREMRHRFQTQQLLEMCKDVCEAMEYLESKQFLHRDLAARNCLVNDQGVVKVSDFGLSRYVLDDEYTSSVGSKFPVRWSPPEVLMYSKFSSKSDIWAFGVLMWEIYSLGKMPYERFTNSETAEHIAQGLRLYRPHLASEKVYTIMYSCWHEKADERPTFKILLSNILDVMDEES

[3] = molecular target: BTK C481S protein (Homo sapiens (Human), UniProt Q06187, C481S); test: BTK C481S HTRF displacement assay; settings: 1-hour incubation
BTK C481S protein, sequence (Q06187 2-659 C481S): as the sequence (Q06187 2-659) above, with C480S counted along it
Summary of the method: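 N-terminal GST-tagged BTK C481S (2-659) incubated 1 hour at room temperature with compound (6 doses, four-fold from 5 μM), 50 nM kinase tracer 239 and anti-GST-Tb antibody. TR-FRET 665/620 ratio, background-subtracted; IC50 from constrained four-parameter fit. KI=IC50/(1+[Tracer]/Kd), tracer Kd 54 nM.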

For `COc1ccc(F)cc1C(=O)NCc1ccc(-c2nn(C[C@H]3CCCCN3C(=O)n3cncn3)c(N)c2C(N)=O)cc1` [Compound 154, (R)-1-((1-(1H-1,2,4-triazole-1-carbonyl)piperidin-2-yl)methyl)-5-amino-3-(4-((5-fluoro-2-methoxybenzamido)methyl)phenyl)-1H-pyrazole-4-carboxamide], the “BTK (wt) Kobs” value [1] was 132, 134, 136, 137, 138, 140, 150, 152, 153, 154, 155, M^−1 · s^−1, the IC50 [2] was ≤ 1 µM and the IC50 [3] was ≤ 1 µM.
In the case of `COc1ccc(F)cc1C(=O)NCc1ccc(-c2nn(C3CCCC(CN(C)C(=O)n4cncn4)C3)c3ncnc(N)c23)cc1` (stereo not shown) [Compound 260, N-((3-(4-amino-3-(4-((5-fluoro-2-methoxybenzamido)methyl)phenyl)-1H-pyrazolo[3,4-d]pyrimidin-1-yl)cyclohexyl)methyl)-N-methyl-1H-1,2,4-triazole-1-carboxamide], the “BTK (wt) Kobs” value [1] is reported as 248, 249, 250, 253, 254, 256, 259, 260, 261, 264, 265, M^−1 · s^−1, the IC50 [2] is reported as ≤ 1 µM and the IC50 [3] is reported as ≤ 1 µM.
With `NC(=O)c1c(-c2ccc(Oc3ccccc3)cc2)nn2c1NCCC2[C@H]1CCCN1C(=O)n1cncn1` (stereo partly drawn) [Compound 140, 7-((R)-1-(1H-1,2,4-triazole-1-carbonyl)pyrrolidin-2-yl)-2-(4-phenoxyphenyl)-4,5,6,7-tetrahydropyrazolo[1,5-a] pyrimidine-3-carboxamide] the “BTK (wt) Kobs” value [1] was 132, 134, 136, 137, 138, 140, 150, 152, 153, 154, 155, M^−1 · s^−1, the IC50 [2] was > 1 µM and the IC50 [3] was ≤ 1 µM.
In the case of `COc1ccc(F)cc1C(=O)NCc1ccc(-c2nn(C(C)C(C)N(C)C(=O)n3cncn3)c3ncnc(N)c23)cc1` (stereo not shown) [Compound 250, N-(3-(4-amino-3-(4-((5-fluoro-2-methoxybenzamido)methyl)phenyl)-1H-pyrazolo[3,4-d]pyrimidin-1-yl)butan-2-yl)-N-methyl-1H-1,2,4-triazole-1-carboxamide], the “BTK (wt) Kobs” value [1] is reported as 248, 249, 250, 253, 254, 256, 259, 260, 261, 264, 265, M^−1 · s^−1, the IC50 [2] is reported as ≤ 1 µM and the IC50 [3] is reported as ≤ 1 µM.
With `NC(=O)c1c(-c2ccc(Oc3ccccc3)cc2)nn(C2CCCC3C2CCN3C(=O)n2cncn2)c1N` (stereo not shown) [Compound 253, 1-(1-(1H-1,2,4-triazole-1-carbonyl)octahydro-1H-indol-4-yl)-5-amino-3-(4-phenoxyphenyl)-1H-pyrazole-4-carboxamide] the “BTK (wt) Kobs” value [1] was 248, 249, 250, 253, 254, 256, 259, 260, 261, 264, 265, M^−1 · s^−1.
For `COc1ccc(F)cc1C(=O)NCc1ccc(-c2nn(C(C)C(C)CN(C)C(=O)n3cncn3)c3ncnc(N)c23)cc1` (stereo not shown) [Compound 248, N-(3-(4-amino-3-(4-((5-fluoro-2-methoxybenzamido)methyl)phenyl)-1H-pyrazolo[3,4-d]pyrimidin-1-yl)-2-methylbutyl)-N-methyl-1H-1,2,4-triazole-1-carboxamide], the “BTK (wt) Kobs” value [1] was 248, 249, 250, 253, 254, 256, 259, 260, 261, 264, 265, M^−1 · s^−1 and the IC50 [2] was ≤ 1 µM.
For `COc1ccc(F)cc1C(=O)NCc1ccc(-c2nn(C3CCC(N(C)C(=O)n4cncn4)C3)c(N)c2C(N)=O)cc1` (stereo not shown) [Compound 150, N-(3-(5-amino-4-carbamoyl-3-(4-((5-fluoro-2-methoxybenzamido)methyl)phenyl)-1H-pyrazol-1-yl)cyclopentyl)-N-methyl-1H-1,2,4-triazole-1-carboxamide], the “BTK (wt) Kobs” value [1] was 132, 134, 136, 137, 138, 140, 150, 152, 153, 154, 155, M^−1 · s^−1 and the IC50 [3] was ≤ 1 µM.
With `COc1ccc(F)cc1C(=O)NCc1ccc(-c2nn(C3CCCC4(CCN4C(=O)n4cncn4)C3)c3ncnc(N)c23)cc1` (stereo not shown) [Compound 152, N-(4-(1-(1-(1H-1,2,4-triazole-1-carbonyl)-1-azaspiro[3.5]nonan-6-yl)-4-amino-1H-pyrazolo[3,4-d]pyrimidin-3-yl)benzyl)-5-fluoro-2-methoxybenzamide] the “BTK (wt) Kobs” value [1] was 132, 134, 136, 137, 138, 140, 150, 152, 153, 154, 155, M^−1 · s^−1 and the IC50 [3] was ≤ 1 µM.
`NC(=O)c1c(-c2ccc(Oc3ccccc3)cc2)nn(C2CCC3(C2)CN(C(=O)n2cncn2)C3)c1N` (stereo not shown) [Compound 165, 1-(2-(1H-1,2,4-triazole-1-carbonyl)-2-azaspiro[3.4]octan-6-yl)-5-amino-3-(4-phenoxyphenyl)-1H-pyrazole-4-carboxamide] was tested, and the IC50 [2] was ≤ 1 µM and the IC50 [3] was ≤ 1 µM.
For `COc1ccc(F)cc1C(=O)NCc1ccc(-c2nn(CC3CCCC3N(C)C(=O)n3cncn3)c(N)c2C(N)=O)cc1` (stereo not shown) [Compound 294, N-(2-((5-amino-4-carbamoyl-3-(4-((5-fluoro-2-methoxybenzamido)methyl)phenyl)-1H-pyrazol-1-yl)methyl)cyclopentyl)-N-methyl-1H-1,2,4-triazole-1-carboxamide], the IC50 [2] was ≤ 1 µM and the IC50 [3] was ≤ 1 µM.
For `COc1ccc(F)cc1C(=O)NCc1ccc(-c2nn(CCC3CCCCN3C(=O)n3cncn3)c3ncnc(N)c23)cc1` (stereo not shown) [Compound 146], the IC50 [2] was ≤ 1 µM and the IC50 [3] was ≤ 1 µM.
For `CN(C(=O)n1cncn1)C1CC(C2CCNc3c(C(N)=O)c(-c4ccc(Oc5ccccc5)cc4)nn32)C1` (stereo not shown) [Compound 115, 7-(3-(N-methyl-1H-1,2,4-triazole-1-carboxamido)cyclobutyl)-2-(4-phenoxyphenyl)-4,5,6,7-tetrahydropyrazolo[1,5-a]pyrimidine-3-carboxamide], the IC50 [2] was ≤ 1 µM and the IC50 [3] was ≤ 1 µM.
With `COc1ccc(F)cc1C(=O)NCc1ccc(-c2nn(-c3cccc(N(C)C(=O)n4cncn4)c3)c3ncnc(N)c23)cc1` [Compound 187, N-(3-(4-amino-3-(4-((5-fluoro-2-methoxybenzamido)methyl)phenyl)-1H-pyrazolo[3,4-d]pyrimidin-1-yl)phenyl)-N-methyl-1H-1,2,4-triazole-1-carboxamide] the IC50 [2] was ≤ 1 µM and the IC50 [3] was ≤ 1 µM.
For `COc1ccc(F)cc1C(=O)NCc1ccc(-c2nn(CC3CCC3N(C)C(=O)n3cncn3)c3ncnc(N)c23)cc1` (stereo not shown) [Compound 209, N-(2-((4-amino-3-(4-((5-fluoro-2-methoxybenzamido)methyl)phenyl)-1H-pyrazolo[3,4-d]pyrimidin-1-yl)methyl)cyclobutyl)-N-methyl-1H-1,2,4-triazole-1-carboxamide], the IC50 [2] was ≤ 1 µM and the IC50 [3] was ≤ 1 µM.
In the case of `COc1ccc(F)cc1C(=O)NCc1ccc(-c2nn([C@H]3CCCC[C@H](N(C)C(=O)n4cncn4)C3)c(N)c2C(N)=O)cc1` [Compound 232, N-((1S,3S)-3-(5-amino-4-carbamoyl-3-(4-((5-fluoro-2-methoxybenzamido)methyl)phenyl)-1H-pyrazol-1-yl)cycloheptyl)-N-methyl-1H-1,2,4-triazole-1-carboxamide], the IC50 [2] is reported as ≤ 1 µM and the IC50 [3] is reported as ≤ 1 µM.
In the case of `COc1nn(C)cc1Nc1nc(N2CCCC(N(C)C(=O)n3cncn3)C2)nc2c1ncn2C` (stereo not shown) [Compound 300, N-(1-(6-((3-methoxy-1-methyl-1H-pyrazol-4-yl)amino)-9-methyl-9H-purin-2-yl)piperidin-3-yl)-N-methyl-1H-1,2,4-triazole-1-carboxamide], the IC50 [2] is reported as > 1 µM and the IC50 [3] is reported as ≤ 1 µM.
`COc1ccc(F)cc1C(=O)NCc1ccc(-c2nn([C@H]3CC[C@@H](N(C)C(=O)n4cncn4)C3)c3ncnc(N)c23)cc1` [Compound 269, N-((1R,3S)-3-(4-amino-3-(4-((5-fluoro-2-methoxybenzamido)methyl)phenyl)-1H-pyrazolo [3,4-d]pyrimidin-1-yl)cyclopentyl)-N-methyl-1H-1,2,4-triazole-1-carboxamide] was tested, and the IC50 [2] was ≤ 1 µM and the IC50 [3] was ≤ 1 µM.
